In US6410593B1, “Antidandruff compositions” (priority 1998, dated 2002):
Like-named read-outs stand apart in the source and are kept apart here.

How the values were obtained:
[1] = sebumetry index measured with the Courage-Khazka sebumeter, Test Panel of 20 individuals; settings: 15 days
Pityrosporum ovalae = test: minimum inhibitory doses (M.I.C.) for Pityrosporum ovalae; format: cell-based
Description: (§1) Undecylenamidopropylbetaine (Amphoram®U from CECA S.A.) was compared with piroctone olamine (CFTA) or 1-hydroxy-4-methyl-6-(2,4,4-trimethylpentyl)-2(1H)pyridone; ethanol (1:1) salt (RN=68890-66-4), taken in its commercial form as Octopyrox® (Hoechst), at the minimum inhibitory doses (M.I.C.) for Pityrosporum ovalae, i.e., respectively, 2% and 0.2% beforehand.

dandruff = test: antidandruff efficacy test over 15 days on a Test Panel of 20 individuals; format: in vivo; settings: for Area occupied by dandruff, percentage of variations on D15 relative to D1 / Dandruff removal index, percentage of variations on D15 relative to D1: products at their M.I.C. (2% and 0.2%)
Description: as §1

[2] = in vivo
[3] = background statement; cited from earlier work

| Compound | Sebumetry index, percentage of variation on D15 relative to D1 [1] [%] | minimum inhibitory doses (M.I.C.) for Pityrosporum ovalae (Pityrosporum ovalae) [%] | state of dandruff (decrease in the area occupied and increase in the dandruff removal index) (dandruff) | Area occupied by dandruff, percentage of variations on D15 relative to D1 (dandruff) [%] | Dandruff removal index, percentage of variations on D15 relative to D1 (dandruff) [%] | Sebumetry index, percentage of variation on D15 relative to D1 [2] [%] | solubility in water [3] |
| --- | --- | --- | --- | --- | --- | --- | --- |
| CCO.Cc1cc(CC(C)CC(C)(C)C)n(O)c(=O)c1 (stereo not drawn) [Octopyrox, 1-hydroxy-4-methyl-6-(2,4,4-trimethylpentyl)-2(1H)pyridone; ethanol (1:1) salt] | −4 | 0.2 | remained stable | −7 | −5 | – | – |
| N-(carboxymethyl)-N,N-dimethyl-3-[(1-oxoundecenyl)amino]-1-propanaminium hydroxide [Amphoram U] | – | 2 | 30 to 40% | −29 | −36 | −7 | – |
| CC(C)(C)C(=O)C(Oc1ccc(Cl)cc1)n1ccnc1 (stereo not drawn) [climbazole] | – | – | – | – | – | – | water-insoluble |
| zinc pyrithione | – | – | – | – | – | – | water-insoluble |
